# Experimental data published in patent US20230233688A1, “MDMA PRODRUGS TO ASSIST PSYCHOTHERAPY” (priority 2021, published 2023).
# Read-outs that look alike come from different tables or passages of the source.
# Tests used:
# [1] = system: dopamine transporter (DAT) / serotonin transporter (SERT); conditions: cited from earlier work
# [2] = system: serotonin (5-HT) release; assay: Serotonin (5-HT) release; conditions: data on file
# [3] = biological target: 5-HT2A receptor (Homo sapiens, UniProt P28223)
# Chain of 5-HT2A receptor (P28223 whole entry): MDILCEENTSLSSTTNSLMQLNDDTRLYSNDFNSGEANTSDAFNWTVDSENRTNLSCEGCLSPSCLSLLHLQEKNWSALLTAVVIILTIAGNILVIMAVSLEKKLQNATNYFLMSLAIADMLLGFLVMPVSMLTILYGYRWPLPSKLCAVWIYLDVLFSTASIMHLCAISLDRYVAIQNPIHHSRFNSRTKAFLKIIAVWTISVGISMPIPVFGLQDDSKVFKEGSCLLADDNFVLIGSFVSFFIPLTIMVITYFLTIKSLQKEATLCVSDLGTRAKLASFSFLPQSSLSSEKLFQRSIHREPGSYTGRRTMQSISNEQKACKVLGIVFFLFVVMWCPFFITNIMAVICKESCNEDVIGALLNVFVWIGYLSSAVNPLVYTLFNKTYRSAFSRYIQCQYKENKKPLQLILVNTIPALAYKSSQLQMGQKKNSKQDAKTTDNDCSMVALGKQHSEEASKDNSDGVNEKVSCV
# [4] = system: healthy subjects; conditions: cited from earlier work; for duration of self-reported effects: MDA 1.4 mg/kg orally, indirect comparison with MDMA from different subjects and studies
# [5] = cited from earlier work; for Tmax (plasma): after administration of 125 mg MDMA to healthy subjects; for elimination half-life: human plasma
# [6] = system: humans; conditions: cited from earlier work
# [7] = system: healthy subjects; conditions: cited from earlier work
# [8] = receptor studies and limited pre-clinical evidence; cited from earlier work
# [9] = relative dopamine over serotonin transporter inhibition potency ratio, literature values
# [10] = vs d-amphetamine, equivalent doses
compound,measurement,setting,value
"CC(N)Cc1ccc2ccoc2c1 (stereo not shown) [6-APB, 6-(2-aminopropyl)-benzofuran]",DAT/SERT ratio,[1]; [9],0.29
CC(N)Cc1ccc2c(c1F)OCO2 (stereo not shown) [2F-MDA],5-HT release,[2],release 5-HT
"CCC(N)Cc1ccc2c(c1)OCO2 (stereo not shown) [BDB, 1-(1,3-benzodioxol-5-yl)-2-aminobutane]",5-HT release,[2],release 5-HT
"CNC(C)Cc1ccc2c(c1)OCO2 (stereo not shown) [MDMA, 3,4-Methylenedioxymethamphetamine]",DAT/SERT ratio,[1],0.08
same,EC50,"[3]; Rickli et al., 2015b; read-out: EC50 of 5-HT2A receptor activation; cited from earlier work",6.1 µM
same,duration of self-reported effects,[4],≤ 6 h
same,Tmax (plasma),[5],2.6 h
same,elimination half-life,[5],7 to 10 h
"CCC(Cc1ccc2c(c1)OCO2)NC (stereo not shown) [MBDB, 1-(1,3-benzodioxol-5-yl)-methyl-2-butanamine]",DAT/SERT ratio,[1]; [9],0.09
C[C@@H](Cc1ccccc1)NC(=O)[C@@H](N)CCCCN [lisdexamfetamine],blood pressure increase,"[6]; 100 mg lisdexamfetamine oral vs d-amphetamine, FIG. 9",increased more slowly and later
same,ratings of liking,"[6]; oral, vs equivalent dose of d-amphetamine, FIG. 8",lower
same,maximal effect (Emax) or area under the effect-time curve (AUEC),[7]; lisdexamfetamine vs d-amphetamine,no differences
same,maximal concentrations of amphetamine,[7]; [10],no differences
same,onset and peak times of the amphetamine concentration-time curve,[7]; [10],longer
same,Tonset of blood pressure-time curve,[7]; vs d-amphetamine,significantly longer
"CC(N)Cc1ccc2c(c1)OCO2 (stereo not shown) [MDA, 3,4-methylenedioxyamphetamine]",DAT/SERT ratio,[1],0.24
same,EC50,"[3]; read-out: EC50 of 5-HT2A receptor activation; Rickli et al., 2015b; cited from earlier work",0.63 µM
same,duration of self-reported effects,[4],up to 8 hours
same,perceptual changes on the 5-Dimensions of Altered States of Consciousness Scale,"[4]; MDA vs MDMA, indirect comparison",greater perceptual changes than MDMA
same,Tmax (plasma),[5],4.7 h
same,Peak plasma concentration of MDA relative to that of MDMA,[5]; after administration of MDMA,7-10%
same,elimination half-life,[5],10 to 16 h
CC(N)Cc1cc2c(cc1F)OCO2 (stereo not shown) [6F-MDA],5-HT release,[2],release 5-HT
"NC1Cc2cc3c(cc2C1)OCO3 [MDAI, 5,6-methylenedioxy-2-aminoindane]",DAT/SERT ratio,[1],0.2
CN[C@H](C)Cc1ccc2c(c1)OCO2 [R(-)-MDMA],efficacy as a releaser of dopamine,[8],low efficacy
same,hyperthermia,[8],does not produce hyperthermia
CC(N)Cc1cc(F)c2c(c1)OCO2 (stereo not shown) [5F-MDA],5-HT release,[2],release 5-HT
"CC(N)Cc1ccc2occc2c1 (stereo not shown) [5-APB, 5-(2-aminopropyl)-benzofuran]",DAT/SERT ratio,[1]; [9],0.05
